Data published in patent publication US11020360B2, “Methods, compounds, compositions and vehicles for delivering 3-amino-1-propanesulfonic acid” (Bellus Health, Inc., priority 2006, dated 2021).
Values joined by “and” are separate entries in the source; they are usually repeats but may differ in a detail not shown here. Equal values may be shown once.

Assays:
human hepatocyte (HepG2) = experiment: Incubation of 3APS in human hepatocyte (HepG2) culture media; type: in vitro ADME; details: after incubation of 3APS in HepG2 culture media
Description: In another in vitro model employing organotypic hippocampal slice culture, the conversion of 3APS to 2-carboxyethanesulfonic acid was time-dependent. More than 60% of 3APS was converted to 2-carboxyethanesulfonic acid after 3-day incubation in the culture media. 2-carboxyethanesulfonic acid was also detected after incubation of 3APS in human hepatocyte (HepG2) culture media.

[1] = Metabolic profiling of 14C-3APS in mice; type: in vivo, male CD-1 mice; details: Mouse plasma
Description: (§1) Three single dose studies were conducted in mice, rats and dogs to determine the metabolic profile of ^14C-3APS in plasma, urine and feces. In the first study, twenty-seven male CD-1 mice received a single dose of 100 mg/kg (20 μCi/animal) of ^14C-3APS by oral gavage. Blood samples (3 animals/time point) were collected for 12 hr following drug administration while urine and feces (3 animals/time point) samples were collected for 96 hr. In the second study, eight male Sprague-Dawley rats received a single dose of 100 mg/kg (50 μCi/animal) of ^14C-3APS by oral gavage while in the third study, three male Beagle dogs received a single dose of 100 mg/kg (30 μCi/kg) of ^14C-3APS by oral gavage. For the rat and dog studies, blood samples were collected for 24 hr following drug administration while urine and feces samples were collected for 72 hr. All samples were analyzed for total radioactivity using appropriate sample preparation procedures and scintillation counting. Plasma and urine samples were also analyzed for 3APS and 3APS metabolites (2-carboxyethanesulfonic acid, 3-hydroxy-1-propanesulfonic acid and 3-acetylamino-1-propanesulfonic acid) concentrations using qualified HPLC and MS/MS methods.

[2] = Metabolic profiling of 14C-3APS in rats; type: in vivo, male Sprague-Dawley rats
Description: as §1

[3] = PK brain and plasma levels of oral Compound A2 and 3-APS in mice; type: in vivo; details: oral 0.18 mmol/kg
Description: Compounds A2 and 3-aminopropanesulfonic acid were tested for pharmacokinetic parameters in mice. Parmacokinetic parameters (Cmax, Tmax, T½, AUC) are evaluated for 3APS after administration of a molar equivalent of each compound. Blood samples (approximately 1 ml) and brain samples are collected from each of 3 animals at time points 5, 15, 30 minutes, 1, 2, 4, 6, 12, and 24 hours. […] A 2-fold increase in plasma concentration (Cmax) of 3-APS was observed when orally administering Compound A2 compared to 3-APS.

[4] = Single oral and IV administration of 14C-3APS to rats; type: in vivo, male Sprague-Dawley rats; details: for AUC0-∞ / AUC(0-inf): 100 mg/kg 14C-3APS, rats, 100 mg/kg; for AUC(0-inf): male, Sprague-Dawley, rat, plasma
Description: The purpose of this study was to investigate the absorption, metabolism and excretion profiles of ^14C-3APS following a single intravenous bolus and oral administration to rats. Thirty-six male Sprague-Dawley rats received a single 100 mg/kg (˜50 μCi/animal) dose of ^14C-3APS by an IV bolus injection (water or isotonic saline solution) and an additional 36 male rats received the same dose level by oral gavage (in water). Blood, urine, feces, brain and CSF samples were collected for up to 72 hr following dose administration. Plasma, urine, brain and CSF concentrations of 3APS and 2-carboxyethanesulfonic acid (3APS major metabolite) were measured using LC and MS/MS detection method. Plasma, urine, feces, brain and CSF samples were analyzed for total radioactivity using appropriate sample preparation procedures and scintillation counting.

[5] = Single oral, intravenous and portal administration of 3APS in rats; type: in vivo, male Sprague-Dawley rats
Description: The purpose of this study was to compare the pharmacokinetic profile of 3APS following a single dose administration either orally, intravenously or into the portal vein to male Sprague-Dawley rats. The oral, intravenous and portal routes of administration were selected to determine the intestinal and hepatic first-pass effects in the rat. Three groups of 4 male Sprague-Dawley rats were assigned to receive a single dose of 250 mg/kg 3APS by different routes of administration. One group received 3APS as an IV bolus administration (in water or isotonic saline solution), one group by oral gavage (in water) and the last group via a catheter into the portal vein (in water or isotonic saline solution). Blood samples were collected for 24 hours following dose administration. Plasma concentrations of 3APS and 2-carboxyethanesulfonic acid (the major metabolite of 3APS) were determined using LC and MS/MS method.

[6] = Previous metabolic stability studies of 3APS; type: in vitro ADME
Text: Those studies include: 3APS metabolic stability in pooled human hepatocytes, human, rat and dog liver microsomes, human intestinal microflora, pooled human liver cytosol, and human arylamine N-acetyltransferase (See Examples 4 and 5).

[7] = Bioavailability of exemplary compounds in mice (3APS quantified in plasma); type: in vivo; details: mouse, oral, 3APS in plasma
Description: Selected exemplary compounds were tested for bioavailability in mice. Bioavailability estimates are performed for 3APS after administration of molar equivalent the selected compounds. […] The animals are anesthetized with isoflurane before blood collection (approximately 45 sec). Samples are collected at 5, 30, 60, 120, 180, 240 and 360 min post intravenous administration and at 15, 30, 60, 120, 180, 240 and 360 min post oral administration. One animal is used to obtain a baseline sample (pre-dose sample). Blood samples are collected into Sarstedt™ micro tubes (EDTA KE/1.3 ml), kept on ice until centrifugation at 4° C. at a minimum speed of 3000 rpm (1620 G) for 10 min. Plasma samples are transferred into Eppendorf™ tubes, immediately placed on dry ice and stored at −80° C. Plasma samples are stored frozen at […] pending analysis.
Compounds in mouse plasma are extracted using protein precipitation. Quantitation of 3APS in mouse plasma matrix is achieved using LC-MS detection. Sample concentration is calculated using a calibration curve.

[8] = Metabolic profiling of 14C-3APS in dogs; type: in vivo, male Beagle dogs; details: Dog plasma
Description: as §1

[9] = analyte after single oral 100 mg/kg 14C-3APS
[10] = male, CD-1, mouse, plasma, po, 100 mg/kg, analyte after single oral 100 mg/kg 14C-3APS
[11] = Rat plasma, analyte after single oral 100 mg/kg 14C-3APS
[12] = male, Sprague-Dawley, rat, plasma, po, 100 mg/kg, Rat plasma, analyte after single oral 100 mg/kg 14C-3APS
[13] = male, Beagle, dog, plasma, po, 100 mg/kg, analyte after single oral 100 mg/kg 14C-3APS

With `NCCCS(=O)(=O)O` [Compound 3APS, 3-amino-1-propanesulfonic acid] the “formation of 2-carboxyethanesulfonic acid” value (human hepatocyte (HepG2)) was “detected”, the AUC0-τ [1, 9] was 15.5 µmol·min/mL and the “AUC∞” value [1, 9] was 15.7 µmol·min/mL. It also gave a Tmax [1, 10] of ~0.5 h, a half-life [1, 10] of ~2 h and a Cmax ([1]; male, CD-1, analyte (3APS or metabolite) after single oral 100 mg/kg 14C-3APS) of 97.7 µM. For the same molecule, the AUC0-τ [2, 11] was 26.7 µmol·min/mL, the “AUC∞” value [2, 11] was 27.6 µmol·min/mL and the T1/2 ([2]; Rat plasma, analyte after single oral 100 mg/kg 14C-3APS, 100 mg/kg) was 6.43 h. For the same molecule, the “% of Total Radioactivity, Urine” value ([2]; Rat, amount excreted, single oral 100 mg/kg 14C-3APS) was 59%, the Tmax [2, 12] was ~0.5 h and the half-life [2, 12] was ~6 h. The Cmax ([2]; male, Sprague-Dawley, Rat plasma, analyte (3APS or metabolite) after single oral 100 mg/kg 14C-3APS) was 218 µM, the “Brain AUC” value ([3]; 3-APS analysed) was “BLLQ” and the “Brain Cmax” value ([3]; 3-APS analysed) was “BLLQ”. For the same molecule, the “Brain concentration of 3-APS” value [3] was “could not be quantified”, the “AUC0-∞” value ([4]; IV, individual animals 1001-1004) was 1420 µM·h and 1591 µM·h and 1147 µM·h and the “% of total radioactivity (AUC0-∞ analyte/AUC total radioactivity)” value ([4]; IV, Mean) was 89%. For the same molecule, the “AUC0-∞” value ([4]; PO, individual animals 3001-3004) was 539 µM·h and 407 µM·h and 471 µM·h, the “% of total radioactivity (AUC0-∞ analyte/AUC total radioactivity)” value ([4]; PO, Mean) was “about 68%” and the AUC(0-inf) ([4]; iv, Mean) was 1420 µM·h. The AUC(0-inf) ([4]; iv, individual animals 1001-1004) was 1530 µM·h, the AUC(0-inf) ([4]; po, Mean) was 507 µM·h and the AUC(0-inf) ([4]; po, individual animals 3001-3004) was 610 µM·h. The “metabolism of 3APS associated with hepatic first-pass” value ([5]; hepatoportal versus intravenous exposure, 250 mg/kg) was 24%, the “bioavailability based on the AUC∞” value ([5]; oral 250 mg/kg) was “about 38%” and the “metabolism of 3APS associated with intestinal first-pass” value ([5]; oral versus hepatoportal exposure, 250 mg/kg) was 43%. For the same molecule, the in vitro metabolism [6] was “no in vitro metabolism”, the Tmax [7] was 0.25 h and the AUC0-τ [8, 9] was 24.5 µmol·min/mL. The “AUC∞” value [8, 9] was 25.3 µmol·min/mL, the T1/2 ([8]; analyte after single oral 100 mg/kg 14C-3APS, 100 mg/kg) was 5.04 h and the Tmax [8, 13] was ~0.5 h. For the same molecule, the half-life [8, 13] was ~5 h and the Cmax ([8]; male, Beagle, analyte (3APS or metabolite) after single oral 100 mg/kg 14C-3APS) was 250 µM.
